Measured values as given in US20060121136A1, “Hypotensive agent and method for producing same” (National Institute of Advanced Industrial Science and …, priority 2003, published 2006).

Target: T1, angiotensin-converting enzyme (ACE) (Oryctolagus cuniculus, UniProt P12822)
T1 construct: purchased Wako Jun-yaku A6778 (Lot No.)
T1 sequence (P12822 34-1310): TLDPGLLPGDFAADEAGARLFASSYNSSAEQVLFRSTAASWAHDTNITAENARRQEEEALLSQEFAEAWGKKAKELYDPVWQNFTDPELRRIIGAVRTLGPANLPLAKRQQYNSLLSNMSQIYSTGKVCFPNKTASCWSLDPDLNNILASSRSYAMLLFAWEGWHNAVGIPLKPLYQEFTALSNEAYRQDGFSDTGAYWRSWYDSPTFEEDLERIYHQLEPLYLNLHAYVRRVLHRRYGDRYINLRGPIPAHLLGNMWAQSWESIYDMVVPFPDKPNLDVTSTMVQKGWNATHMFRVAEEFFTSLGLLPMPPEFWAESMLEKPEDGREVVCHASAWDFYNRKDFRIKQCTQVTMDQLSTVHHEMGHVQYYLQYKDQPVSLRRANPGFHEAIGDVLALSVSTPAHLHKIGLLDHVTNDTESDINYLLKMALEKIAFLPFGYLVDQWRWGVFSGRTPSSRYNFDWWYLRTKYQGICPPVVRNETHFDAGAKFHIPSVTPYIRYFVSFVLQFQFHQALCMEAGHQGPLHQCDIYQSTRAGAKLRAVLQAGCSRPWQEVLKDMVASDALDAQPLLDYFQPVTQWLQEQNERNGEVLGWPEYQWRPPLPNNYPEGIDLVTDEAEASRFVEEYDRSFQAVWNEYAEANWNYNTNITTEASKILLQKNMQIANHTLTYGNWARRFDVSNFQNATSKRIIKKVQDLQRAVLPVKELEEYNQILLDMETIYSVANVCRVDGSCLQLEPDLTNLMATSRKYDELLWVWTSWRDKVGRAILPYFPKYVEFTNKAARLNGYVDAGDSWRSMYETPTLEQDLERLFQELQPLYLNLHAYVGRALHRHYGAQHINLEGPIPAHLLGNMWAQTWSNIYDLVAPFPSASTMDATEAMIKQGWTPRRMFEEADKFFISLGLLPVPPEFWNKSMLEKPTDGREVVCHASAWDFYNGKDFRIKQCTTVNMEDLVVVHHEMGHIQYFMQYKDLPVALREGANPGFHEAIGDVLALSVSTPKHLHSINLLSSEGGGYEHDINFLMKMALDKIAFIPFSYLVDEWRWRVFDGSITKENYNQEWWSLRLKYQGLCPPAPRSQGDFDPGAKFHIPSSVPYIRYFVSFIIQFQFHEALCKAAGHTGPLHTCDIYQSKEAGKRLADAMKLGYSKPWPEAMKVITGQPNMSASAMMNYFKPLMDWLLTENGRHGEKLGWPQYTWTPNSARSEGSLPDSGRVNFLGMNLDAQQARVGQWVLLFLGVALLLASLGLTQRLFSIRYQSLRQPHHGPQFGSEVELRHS
Test: ACE inhibiting activity (Hip-His-Leu substrate, liberated hippuric acid OD at 228 nm)
Type: biochemical
Details: final sample concentration 10 mM
Protocol: The blood pressure-lowering activity of the oligosaccharide for use in the invention was investigated by determining the angiotensin-converting enzyme inhibiting activity (hereinafter referred to as ACE inhibiting activity) thereof. Concretely, various oligosaccharides mentioned below were analyzed for their ACE inhibiting activity. • 1) Glc(α1-1α)Glc: α,α-trehalose (sold by Wako Jun-yaku, Lot No. KP7915), • 2) Glc(α1-1β)Glc: α,β-trehalose (sold by Sigma, Lot No. T-0299), • 3) Glc(β1-1β)Glc: β,β-trehalose (sold by Sigma, Lot No. T-0917), • 4) Glc(α1-2)Glc: kojibiose (sold by Sigma, Lot No. T-0299), • 5) Glc(β1-2)Glc: sophorose (sold by Sigma, Lot No. S-1404), • 6) Glc(α1-3)Glc: nigerose (sold by Wako Jun-yaku, Lot No. 142-06433), • 7) Glc(β1-3)Glc: laminaribiose (sold by Sigma, Lot No. L-6384), • 8) Glc(α1-4)Glc: maltose (sold by Sigma, Lot No. M-9171), • 9) Glc(β1-4)Glc: cellobiose (sold by Nacalai, Lot No. 075-11), • 10) Glc(α1-6)Glc: isomaltose (sold by Sigma, Lot No. I-7253), • 11) Glc(β1-6)Glc: gentiobiose (sold by Sigma, Lot No. G-3000), • 12) Gal(α1-6)Glc: melibiose (sold by Sigma, Lot No. M-5500), • 13) Gal(β1-6)Gal (sold by Sigma, Lot No. G-5643), • 14) Glc(α1-6) glucitol:Glc(α1-6) mannitol (=50:50) (sold by Sigma, Lot No. P8583-500), • 15) Glc(α1-6)Fru: palatinose (sold by Sigma, Lot No. M-5500), • 16) Fru(β2-1α)Glc: sucrose (sold by Wako Jun-yaku, Lot No. 192-00012), and • 17) Glc(α1-3) Fru(β2-1α) Glc: melezitose (sold by Nacalai, Lot No. 214-01). In these, Glu means glucose; Gal means galactose; and Fru means fructose.
Each oligosaccharide as above was dissolved in water (MilliQ water). Because of the solubility thereof, the sample was dissolved to have a final concentration of 10, 30 or 100 mM at the time when its activity is determined (Table 1). Next, with cooling with ice, 30 μl of the sample (Nos. 1 to 17 in Table 1) was put into a test tube. Then, 100 μl of ACE (sold by Wako Jun-yaku, Lot No. A6778) in a borate buffer (60 mU/ml) (pH 8.3) was added to each sample. As a blank, one also added with 250 μl of 1 N HCl serving as a reaction stopper was prepared. These were pre-incubated at 37° C. for 5 minutes. Further, 250 μl of a borate buffer (pH 8.3) containing as a substrate, 7.6 mM Hip-His-Leu (sold by Sigma, Lot No. 012-02195) and 608 mM sodium chloride (sold by Wako Jun-yaku, Lot No. 191-01665) was added. These were reacted at 37° C. for 30 minutes. Then, 250 μl of 1 NHCl was added and stirred, and the reaction was stopped. Then, 1.5 ml of ethyl acetate (sold by Wako Jun-yaku, Lot No. 051-00356) was added, and the thus-liberated hippuric acid was extracted out. After thus extracted, it was centrifuged at 3000 rpm for 10 minutes, and 0.5 ml of the supernatant (ethyl acetate layer)was recovered. The thus-recovered ethyl acetate was removed under reduced pressure, and 4 ml of water was added and stirred. The absorption of the dissolved hippuric acid at 228 nm (OD) was measured. The borate buffer used herein was prepared from Na2B4O7 (sold by Wako Jun-yaku, Lot No. 194-01415) and H3BO3 (sold by Wako Jun-yaku, Lot No. 012-02195) so that its pH could be 8.3. The data obtained were computed according to the calculation formula mentioned below, and the ACE inhibiting activity (%) of each sample was obtained as in Table 1 and FIG. 1. ACE Inhibiting Activity (%)={[(solvent OD−solvent blank OD)−(sample OD−sample blank OD)]/(solvent OD−solvent blank OD)}×100.

| ACE Inhibiting Activity (%) | Compound |
| --- | --- |
| 1.0 | OC[C@H]1O[C@H](O[C@H]2C(O)O[C@H](CO)[C@@H](O)[C@@H]2O)[C@H](O)[C@@H](O)[C@@H]1O (stereo partly shown) [compound 4, kojibiose] |
| 0.4 | OC[C@H]1O[C@H](O[C@H]2[C@H](O)[C@@H](CO)OC(O)[C@@H]2O)[C@H](O)[C@@H](O)[C@@H]1O (stereo partly shown) [compound 6, nigerose] |

Same assay, conditions: final sample concentration 30 mM

| ACE Inhibiting Activity (%) | inhibition at 30000 µM [%] | Compound |
| --- | --- | --- |
| 1.2 |  | OC[C@H]1O[C@H](O[C@H]2O[C@H](CO)[C@@H](O)[C@H](O)[C@H]2O)[C@H](O)[C@@H](O)[C@@H]1O [compound 1, α,α-trehalose] |
| 1.6 |  | OC[C@H]1O[C@@H](O[C@H]2O[C@H](CO)[C@@H](O)[C@H](O)[C@H]2O)[C@H](O)[C@@H](O)[C@@H]1O [compound 2, α,β-trehalose] |
| 0.6 |  | OC[C@H]1O[C@@H](O[C@@H]2O[C@H](CO)[C@@H](O)[C@H](O)[C@H]2O)[C@H](O)[C@@H](O)[C@@H]1O [compound 3, β,β-trehalose] |
| 3.0 |  | OC[C@H]1O[C@@H](O[C@H]2C(O)O[C@H](CO)[C@@H](O)[C@@H]2O)[C@H](O)[C@@H](O)[C@@H]1O (stereo partly shown) [compound 5, sophorose] |
| 0.8 |  | OC[C@H]1O[C@@H](O[C@H]2[C@H](O)[C@@H](CO)OC(O)[C@@H]2O)[C@H](O)[C@@H](O)[C@@H]1O (stereo partly shown) [compound 7, laminaribiose] |
|  | -1 | O=C[C@H](O)[C@@H](O)[C@H](O[C@@H]1O[C@H](CO)[C@@H](O)[C@H](O)[C@H]1O)[C@H](O)CO [compound 9, cellobiose] |
|  | 6.6 | OC[C@H]1O[C@@](CO)(O[C@H]2O[C@H](CO)[C@@H](O)[C@H](O)[C@H]2O)[C@@H](O)[C@@H]1O [compound 16, sucrose] |
|  | 5.5 | OC[C@H]1O[C@@](CO)(O[C@H]2O[C@H](CO)[C@@H](O)[C@H](O)[C@H]2O)[C@@H](O[C@H]2O[C@H](CO)[C@@H](O)[C@H](O)[C@H]2O)[C@@H]1O [compound 17, melezitose] |

Same assay, conditions: final sample concentration 100 mM

| inhibition at 100000 µM [%] | ACE Inhibiting Activity (%) | Compound |
| --- | --- | --- |
| 6.3 |  | OC[C@H]1O[C@H](O[C@H]2[C@H](O)[C@@H](O)C(O)O[C@@H]2CO)[C@H](O)[C@@H](O)[C@@H]1O (mixture of isomers) [compound 8, maltose] |
|  | 27.2 | OC[C@H]1O[C@H](OC[C@H]2OC(O)[C@H](O)[C@@H](O)[C@@H]2O)[C@H](O)[C@@H](O)[C@@H]1O (stereo partly shown) [compound 10, isomaltose] |
|  | 54.9 | OC[C@H]1O[C@@H](OC[C@H]2OC(O)[C@H](O)[C@@H](O)[C@H]2O)[C@H](O)[C@@H](O)[C@H]1O (stereo partly drawn) [compound 13, Gal(β1-6)Gal] |
|  | 93.5 | OC[C@H]1O[C@H](OC[C@H]2OC(O)(CO)[C@@H](O)[C@@H]2O)[C@H](O)[C@@H](O)[C@@H]1O (stereo partly shown) [compound 15, palatinose] |

| Compound | inhibition at 100000 µM [%] | ACE Inhibiting Activity (%) |
| --- | --- | --- |
| OC[C@H]1O[C@H](OCC2O[C@@H](O)[C@H](O)[C@@H](O)[C@@H]2O)[C@H](O)[C@@H](O)[C@H]1O (stereo partly shown) [compound 12, melibiose] |  | 40.7 |
| gentiobiose [compound 11] |  | 31.5 |
